Literature values in patent publication US12594237B2, “Mucoadhesive gel composition” (Viramal Limited, priority 2018, dated 2026).

Settings: orally administered

- half-life in serum: about 5 minutes
SMILES: CC(=O)[C@H]1CC[C@H]2[C@@H]3CCC4=CC(=O)CC[C@]4(C)[C@H]3CC[C@]12C [progesterone]
